Measured values: PMC6608980, “The lectin-specific activity of Toxoplasma gondii microneme proteins 1 and 4 binds Toll-like receptor 2 and 4 N-glycans to regulate innate immune priming” (PLoS Pathogens, 2019)

Legend:
rMIC4 = target: T1, rMIC4 (Toxoplasma gondii, UniProt Q9XZH7); assay: microplate sugar-inhibition of binding to coated asialofetuin, antibody detection; settings: 25 °C, 2 h; competes with asialofetuin glycans at the carbohydrate-recognition domain
T1 construct: gene MIC4

rMIC1 = target: T2, rMIC1 (Toxoplasma gondii, UniProt A0A125YMF8); assay: microplate sugar-inhibition of binding to coated fetuin, antibody detection; settings: 25 °C, 2 h; competes with fetuin glycans at the carbohydrate-recognition domain
T2 construct: gene MIC1
T2 sequence (A0A125YMF8 entry or part of it): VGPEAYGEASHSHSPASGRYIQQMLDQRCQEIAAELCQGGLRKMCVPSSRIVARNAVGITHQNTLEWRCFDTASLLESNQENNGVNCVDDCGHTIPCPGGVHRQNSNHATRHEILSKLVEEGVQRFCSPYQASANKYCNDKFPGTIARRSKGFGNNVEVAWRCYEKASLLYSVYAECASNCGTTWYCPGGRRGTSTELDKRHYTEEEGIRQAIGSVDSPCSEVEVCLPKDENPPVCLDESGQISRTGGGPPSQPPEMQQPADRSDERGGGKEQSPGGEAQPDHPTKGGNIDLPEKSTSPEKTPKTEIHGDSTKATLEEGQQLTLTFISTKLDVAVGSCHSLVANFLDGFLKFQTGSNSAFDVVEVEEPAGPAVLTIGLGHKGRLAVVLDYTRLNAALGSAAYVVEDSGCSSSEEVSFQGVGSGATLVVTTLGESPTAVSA

T1 sequence (Q9XZH7 26-580): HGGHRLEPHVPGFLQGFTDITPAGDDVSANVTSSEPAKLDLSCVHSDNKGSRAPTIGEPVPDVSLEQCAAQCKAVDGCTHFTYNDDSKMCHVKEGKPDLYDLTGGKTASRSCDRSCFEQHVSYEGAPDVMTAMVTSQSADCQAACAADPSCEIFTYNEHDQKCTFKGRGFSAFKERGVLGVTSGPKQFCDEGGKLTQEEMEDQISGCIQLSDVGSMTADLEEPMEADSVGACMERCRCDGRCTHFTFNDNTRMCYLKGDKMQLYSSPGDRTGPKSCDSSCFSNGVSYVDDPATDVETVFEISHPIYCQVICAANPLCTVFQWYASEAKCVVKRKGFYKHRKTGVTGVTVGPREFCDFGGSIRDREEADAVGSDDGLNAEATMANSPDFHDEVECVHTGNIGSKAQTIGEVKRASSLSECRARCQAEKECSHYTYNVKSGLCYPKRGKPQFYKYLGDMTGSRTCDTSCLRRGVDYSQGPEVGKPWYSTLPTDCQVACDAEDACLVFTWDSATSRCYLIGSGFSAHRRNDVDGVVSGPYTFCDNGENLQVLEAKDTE

SMILES | microplate sugar-inhibition of binding to coated asialofetuin, antibody detectio (rMIC4) | microplate sugar-inhibition of binding to coated fetuin, antibody detection (rMIC1)
CC(=O)N[C@H]1C(O)O[C@H](CO)[C@@H](O)[C@@H]1O[C@@H]1O[C@H](CO)[C@H](O)[C@H](O)[C@H]1O (some centres unmarked) [lacto-N-biose] | lacto-N-biose inhibited the binding of rMIC4 to asialofetuin | 
CC(=O)N[C@H]1[C@H]([C@H](O)[C@H](O)CO)O[C@@](O[C@H]2[C@@H](O)[C@@H](CO)O[C@@H](O[C@H]3[C@H](O)[C@@H](O)C(O)O[C@@H]3CO)[C@@H]2O)(C(=O)O)C[C@@H]1O (stereo partly drawn) [α(2–3)-sialyllactose] |  | Sialyllactose inhibited the binding of rMIC1 to fetuin
